Measurements reported in patent publication US9844563B2, “Compositions, kits, and methods to induce acquired cytoresistance using stress protein inducers” (FRED HUTCHINSON CANCER RESEARCH CENTER, priority 2014, dated 2017).
Where “and” joins values, the source holds several entries; their conditions need not be identical. Equal values may be shown once.

Assays:
IL-10 [1] = test: Liver IL-10 mRNA and protein after N-Mgb, SnPP or both; format: in vivo, mice; settings: 18 h after Rx treatment
Protocol: (§1) Thirty-two mice were divided into 4 equal groups: (1) control mice; (2) mice treated with 1 mg of N-Mgb injection (as a bolus through the tail vein); (3) mice treated with […] of SnPP (via tail vein); and (4) mice treated with combined N-Mgb 1 SnPP. After either 4 hours (n=16) or 18 hours (n=16), the mice were deeply anesthetized with pentobarbital (50 mg/kg), the abdomen was opened through a midline abdominal incision, and the kidneys were removed. To determine potential effects on extrarenal organs, a liver lobe and the heart were also removed. The tissues were iced and then extracted for protein and RNA (RNeasy Plus Mini; Qiagen, Valencia, Calif.) and subjected to enzyme linked immunosorbent assay (ELISA) and reverse transcriptase polymerase chain reaction (RT-PCR) for HO-1, haptoglobin, and IL-10 protein and messenger RNAs (mRNAs). Zager et al. J Am Soc Nephrol 2014;25:998-1012; Zager et al. Am J Physiol 2012;303:F139-48. As an assessment of renal function, control mice and the 18 hour after N-Mgb+SnPP—treated mice had blood urea nitrogen (BUN) and plasma creatinine levels measured. Additionally, transverse 10% formalin fixed kidney sections ([…]) were cut and stained with hematoxylin and eosin (H&E) and periodic acid Schiff (PAS) to further assess potential injury.

[2] = Nath et al., J. Clin. Invest. 1992; cited from earlier work
HO-1 [3] = test: Renal cortical HO-1 mRNA (RT-PCR) and protein (ELISA) after N-Mgb, SnPP or both; format: in vivo, mice
Protocol: as §1

HO-1 mRNA = test: Renal cortical HO-1 mRNA (RT-PCR) after IV myoglobin, SnPP or both; format: in vivo, mice; settings: 4 hrs post IV injection
Source text: The Glycerol Model of AKI. This is a widely used model of rhabdomyolysis-induced AKI that has been employed worldwide for 50 years. The model was used to test whether prophylactic interventions confer protection against AKI. Basically, the protocol is as follows: Male CD-1 mice (35-45 grams), obtained from Charles River Laboratories, Wilmington, Mass. were studied. Mice were maintained under standard vivarium conditions and generally housed for 1-3 weeks prior to study. The mice were placed in a cylindrical restraining cage, and then were given a tail vein injection of the test substances (see below) or test substance vehicle. The mice were then returned to their cages. Eighteen hours (hrs) later, the mice were briefly anesthetized by isoflurane inhalation, and given an intramuscular injection of hypertonic (50%) glycerol in a dose of 9 ml/Kg body weight. The dose is divided in two, with half injected into the muscle of each of the hind limbs. The mice were then returned to their cages. Eighteen hrs later, the mice were deeply anesthetized with pentobarbital (50-100 mg/Kg), the abdominal cavity was opened through a midline abdominal incision, a blood sample was obtained from the abdominal vena cava and the kidneys were resected. A kidney cross section was obtained and fixed in formalin for subsequent histologic analysis. The terminal blood samples were analyzed for BUN and creatinine, using commercially available assay kits. The remaining kidney tissue was subjected to cortical dissection, and the cortical tissues were then extracted for protein and RNA. The protein samples were saved for analysis of HO-1 levels, and the RNA samples were subjected to RT-PCR to quantify HO-1 mRNA as well as levels of other stress gene mRNAs (e.g. NGAL, haptoglobin, hemopexin, hepicidin).
Myoglobin+SnPP: To 5 mg of dry myoglobin was added 0.9 ml of PBS+0.1 ml of a stock SnPP solution (50 umole/ml). The resulting final concentrations were 5 mg/ml myoglobin+5 umoles/ml of SnPP. The tail vein was injected with 200 ul of this solution, which equals 1 mg myoglobin+1 umole SnPP. […]
Four hr post myoglobin vs myoglobin+SnPP vs SnPP alone experiments. To confirm that the myoglobin+SnPP has a synergistic effect in inducing HO-1 mRNA and HO-1 protein levels, each of the above combinations have been administered alone via tail vein injection. Four hrs later, the mice were sacrificed as noted above and the kidneys were harvested for assessment of HO-1 mRNA and protein levels. For additional information regarding methods, see Zager et al., Am J Physiol Renal Physiol. 2014 Jul. 30. Pii.

[4] = set-up: species or system mice; settings: mouse, in vivo, iv
[5] = Glycerol model of rhabdomyolysis-induced AKI; format: in vivo, mice; settings: IV pretreatment 18 hours before glycerol; 18 hours after glycerol
Protocol: Assessments of cytoresistance. Glycerol model of rhabdomyolysis-induced AKI. Twenty mice were divided into 4 equal groups (controls, mice treated with N-Mgb, SnPP, and mice treated with N-Mgb+SnPP tail vein injections) as described previously. 18 hours later, the mice were briefly anesthetized with isoflurane and immediately injected with 9 mL/kg of 50% glycerol, administered in equally divided doses into each hind limb. At 18 hours after glycerol injection, the mice were anesthetized with pentobarbital, the abdomen was opened, a blood sample for BUN and creatinine assessments was obtained from the vena cava, and the kidneys were resected. The control post-glycerol group and the N-Mgb+SnPP—pretreated glycerol group had kidney sections stained with H&E.
Calculations and statistics. All values are given as the mean […] standard error of the mean. Statistical comparisons were made by unpaired Student's t test. If multiple comparisons were made, the Bonferroni correction was applied. The severity of renal histologic injury in the glycerol AKI model was graded on a […] (least to most severe tubular necrosis and cast formation observed). The histologic results were compared by Wlcoxon rank sum test. Statistical significance was taken as a P value of <0.05.

[6] = Berglund et al.; Kappas et al.; Reddy et al.; cited from earlier work
HO-1 [7] = test: Cardiac HO-1 mRNA and protein after N-Mgb, SnPP or both; format: in vivo, mice; settings: 18 h after Rx treatment
Protocol: as §1

[8] = Agarwal et al., Kidney Int. 1995; cited from earlier work
[9] = system: Mgb-exposed cultured proximal tubule (HK-2) cells; settings: Zager & Burkhart, Kidney Int 1997; cited from earlier work
[10] = Berglund et al. Hepatology 1988; cited from earlier work
IL-10 [11] = test: Renal cortical IL-10 mRNA and protein after N-Mgb, SnPP or both; format: in vivo, mice
Protocol: as §1

Haptoglobin = test: Renal cortical haptoglobin mRNA and protein after N-Mgb, SnPP or both; format: in vivo, mice; settings: renal cortex, 4 h after Rx treatment
Protocol: as §1

Plasma LDH, Average [4]: 4.51 Absorbance U LDH/ml
SMILES: C=Cc1c2[n-]c(c1C)/C=c1\[n-]/c(c(C)c1C=C)=C\c1[n-]c(c(CCC(=O)O)c1C)C=c1[n-]/c(c(C)c1CCC(=O)O)=C\2.[Sn+4] [SnPP, Sn-protoporphyrin, reference compound]
Liver mRNA IL-10 (IL-10 [1]): 0.05 ± 0.01
effect on kidney dysfunction [2]: exacerbated kidney dysfunction
increase in renal HO-1 mRNA (HO-1 [3]; 4 hours after IV injection, vs controls): only modest increases
increase in renal HO-1 protein (HO-1 [3]; 18 hours post-treatment, vs control values): only relatively small HO-1 protein increases
HO-1 mRNA induction (HO-1/GAPDH mRNA), Average (HO-1 mRNA; average): 6.94 HO-1/GAPDH mRNA
HO-1 mRNA induction (HO-1/GAPDH mRNA), individual mice (HO-1 mRNA; single animals): 9.72 HO-1/GAPDH mRNA and 8.25 HO-1/GAPDH mRNA and 6.95 HO-1/GAPDH mRNA and 2.85 HO-1/GAPDH mRNA
protection against glycerol-induced AKI (BUN/creatinine levels) [5]: virtually no effect
tolerability in humans [6]: well tolerated in humans
Cardiac mRNA HO-1 (HO-1 [7]): 0.09 ± 0.03
effect of pretreatment on renal injury [8]: exacerbated renal injury
reduction of Mgb toxicity by SnPP addition [9]: ≤ 85%
half-life [10]: 2 to 4 h
increase in renal IL-10 mRNA (IL-10 [11]; 4 hours after injection): either minimal or no impact
increase in renal IL-10 protein (IL-10 [11]; 18 hours after injection): absence of IL-10 protein increases
Kidney IL-10 (protein) (IL-10 [11]; renal cortex, 4 h after Rx treatment): 550 ± 86
Kidney Haptoglobin (protein) (Haptoglobin): 13.1 ± 1.3
